The values below come from patent US11661426B2, “Imidazole-containing inhibitors of ALK2 kinase” (BioCryst Pharmaceuticals, Inc., priority 2017, dated 2023).

For the experiment, the target named is ALK2 (Homo sapiens (Human), UniProt Q04771). Briefly: ALK2 inhibition, LanthaScreen Eu Kinase Binding Assay (ThermoFisher Scientific / Life Technologies). Conditions: read-out: Measured Ki (IC50) Value for Compounds: IC50. As to the method: Biochemical assays to measure the inhibitory effects of the compounds were performed by ThermoFisher Scientific (Life Technologies). ALK2 inhibition was tested using LanthaScreen™ Eu Kinase Binding Assay screening protocol.
Chain of ALK2 (Q04771 21-509): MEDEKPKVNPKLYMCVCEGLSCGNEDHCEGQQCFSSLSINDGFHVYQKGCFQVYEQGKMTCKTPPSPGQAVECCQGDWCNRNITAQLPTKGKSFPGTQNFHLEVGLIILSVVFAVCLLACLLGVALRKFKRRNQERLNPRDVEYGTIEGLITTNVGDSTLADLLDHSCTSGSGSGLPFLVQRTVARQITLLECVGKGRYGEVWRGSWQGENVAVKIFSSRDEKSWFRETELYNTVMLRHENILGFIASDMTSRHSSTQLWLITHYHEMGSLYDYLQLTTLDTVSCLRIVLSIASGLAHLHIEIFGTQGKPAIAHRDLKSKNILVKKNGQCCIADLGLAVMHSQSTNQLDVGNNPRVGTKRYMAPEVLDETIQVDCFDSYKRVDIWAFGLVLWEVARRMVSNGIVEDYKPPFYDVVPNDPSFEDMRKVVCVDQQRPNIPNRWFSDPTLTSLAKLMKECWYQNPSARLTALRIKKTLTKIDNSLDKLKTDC
On the technique in general: Time-resolved FRET reads energy transfer from a long-lived donor to a nearby acceptor.

Usually IC50 stands for the point on the concentration scale where inhibition reaches its midpoint. For the molecule `COc1cc(-n2cnc(Nc3nc(N4CCC[C@H]4CO)nc4c3cnn4C3CCCCO3)c2)cc(OC)c1OC` (stereo partly drawn) [Compound 326c, ((2S)-1-(1-(tetrahydro-2H-pyran-2-yl)-4-((1-(3,4,5-trimethoxyphenyl)-1H-imidazol-4-yl)amino)-1H-pyrazolo[3,4-d]pyrimidin-6-yl)pyrrolidin-2-yl)methanol], the half-inhibitory concentration (IC50) was under 100 nM.

Take `COc1cc(-n2cnc(Nc3nc4c(c(N5CCC[C@H]5CO)n3)CCN(Cc3ccc(C(F)(F)F)cc3)C4)c2)cc(OC)c1OC` [Compound 215a, (S)-(1-(7-(4-(trifluoromethyl)benzyl)-2-((1-(3,4,5-trimethoxyphenyl)-1H-imidazol-4-yl)amino)-5,6,7,8-tetrahydropyrido[3,4-d]pyrimidin-4-yl)pyrrolidin-2-yl)methanol]: the half-inhibitory concentration (IC50) is under 100 nM.

For the molecule `COc1cc(-n2cnc(Nc3nc(N4CCCC4)nc4c3CCN(C(=O)OC(C)(C)C)C4)c2)cc(OC)c1OC` [Compound 184a, tert-butyl 2-(pyrrolidin-1-yl)-4-((1-(3,4,5-trimethoxyphenyl)-1H-imidazol-4-yl)amino)-5,6-dihydropyrido[3,4-d]pyrimidine-7(8H)-carboxylate], the IC50 is under 100 nM.

As for `COc1ccc(-n2cnc(Nc3nc(N4CCC[C@H]4CO)nn4cccc34)c2)cc1` [Compound 55c, (S)-(1-(4-((1-(4-methoxyphenyl)-1H-imidazol-4-yl)amino)pyrrolo[2,1-f][1,2,4]triazin-2-yl)pyrrolidin-2-yl)methanol], the IC50 is under 100 nM.

With `COc1cc(-n2cnc(Nc3nc(-c4cccc(C=O)c4)nn4cccc34)c2)cc(OC)c1OC` [Compound 110a, 3-(4-((1-(3,4,5-trimethoxyphenyl)-1H-imidazol-4-yl)amino)pyrrolo[2,1-f][1,2,4]triazin-2-yl)benzaldehyde], the IC50 is under 100 nM.

For the molecule `COc1cc(-n2cnc(Nc3nc(N4CCC[C@@H]4CO)c4c(C)nn(C5CCC5)c4n3)c2)cc(OC)c1OC` [Compound 460d, (R)-(1-(1-cyclobutyl-3-methyl-6-((1-(3,4,5-trimethoxyphenyl)-1H-imidazol-4-yl)amino)-1H-pyrazolo[3,4-d]pyrimidin-4-yl)pyrrolidin-2-yl)methanol], the half-maximal inhibitory concentration (IC50) is under 100 nM.

Regarding `OC[C@@H]1CCCN1c1nc(Nc2cn(-c3ccccc3F)cn2)c2cccn2n1` [Compound 36c, (S)-(1-(4-((1-(2-fluorophenyl)-1H-imidazol-4-yl)amino)pyrrolo[2,1-f][1,2,4]triazin-2-yl)pyrrolidin-2-yl)methanol], the IC50 was under 100 nM.

On to `COc1cc(-c2ccc(Nc3nc(N4CCC[C@H]4CO)c4ccccc4n3)nc2)cc(OC)c1OC` [Compound 357d, (S)-(1-(2-((5-(3,4,5-trimethoxyphenyl)pyridin-2-yl)amino)quinazolin-4-yl)pyrrolidin-2-yl)methanol], for which the IC50 is over 1000 nM.

In the case of `COc1cc(-n2cnc(Nc3nc(N4CCC[C@@H]4C(N)=O)nc4[nH]ccc34)c2)cc(OC)c1OC` [Compound 314b, (R)-1-(4-((1-(3,4,5-trimethoxyphenyl)-1H-imidazol-4-yl)amino)-7H-pyrrolo[2,3-d]pyrimidin-2-yl)pyrrolidine-2-carboxamide], the half-inhibitory concentration (IC50) is under 100 nM.

Consider `COc1cc(-n2cnc(Nc3nc(N4CCCC4)c4c(ccn4S(=O)(=O)c4ccc(C)cc4)n3)c2)cc(OC)c1OC` [Compound 199b, 4-(pyrrolidin-1-yl)-5-tosyl-N-(1-(3,4,5-trimethoxyphenyl)-1H-imidazol-4-yl)-5H-pyrrolo[3,2-d]pyrimidin-2-amine], for which the IC50 is over 1000 nM.

As for `Cn1cnc(Nc2nc(Cl)nc3ccoc23)c1` [Compound 1b, 2-chloro-N-(1-methyl-1H-imidazol-4-yl)furo[3,2-d]pyrimidin-4-amine], the IC50 is over 1000 nM.

With `COc1cc(-n2cnc(Nc3nc(N4CCC[C@H]4C(N)=O)nc4ccn(S(=O)(=O)c5ccc(C)cc5)c34)c2)cc(OC)c1OC` [Compound 162a, (S)-1-(5-tosyl-4-((1-(3,4,5-trimethoxyphenyl)-1H-imidazol-4-yl)amino)-5H-pyrrolo[3,2-d]pyrimidin-2-yl)pyrrolidine-2-carboxamide], the IC50 lay within 100 to 1000 nM.

As to `COc1cc(-n2cnc(Nc3nc(N4CCC[C@H]4CO)nc4cccnc34)c2)cc(OC)c1OC` [Compound 140c, (S)-(1-(4-((1-(3,4,5-trimethoxyphenyl)-1H-imidazol-4-yl)amino)pyrido[3,2-d]pyrimidin-2-yl)pyrrolidin-2-yl)methanol], the half-maximal inhibitory concentration (IC50) is under 100 nM.

`COc1cncc(-n2cnc(Nc3nc(N4CCC[C@H]4CO)nn4cccc34)c2)c1` [Compound 321b, (S)-(1-(4-((1-(5-methoxypyridin-3-yl)-1H-imidazol-4-yl)amino)pyrrolo[2,1-f][1,2,4]triazin-2-yl)pyrrolidin-2-yl)methanol]: the IC50 was under 100 nM.

As for `COc1cc(-n2cnc(Nc3nc(N4CCC[C@H]4CO)nc4c3c(C)nn4C)c2)cc(OC)c1OC` [Compound 374a, (S)-(1-(1,3-dimethyl-4-((1-(3,4,5-trimethoxyphenyl)-1H-imidazol-4-yl)amino)-1H-pyrazolo[3,4-d]pyrimidin-6-yl)pyrrolidin-2-yl)methanol], the IC50 is 100 to 1000 nM.

On to `COc1cc(-n2cnc(Nc3nc(N4CCC[C@H]4CO)c4c(C)nn([C@H]5CC[C@H](N)CC5)c4n3)c2)cc(OC)c1OC` [Compound 435e, ((S)-1-(1-((trans)-4-aminocyclohexyl)-3-methyl-6-((1-(3,4,5-trimethoxyphenyl)-1H-imidazol-4-yl)amino)-1H-pyrazolo[3,4-d]pyrimidin-4-yl)pyrrolidin-2-yl)methanol], for which the IC50 was under 100 nM.

Take `NC(=O)c1cccc(-n2cnc(Nc3nc(N4CCC[C@H]4CO)nn4cccc34)c2)c1` [Compound 94c, (S)-3-(4-(2-(2-(hydroxymethyl)pyrrolidin-1-yl)pyrrolo[1,2-f][1,2,4]triazin-4-ylamino)-1H-imidazol-1-yl)benzamide]: the half-maximal inhibitory concentration (IC50) was under 100 nM.

As for `Cn1cnc(Nc2nc(N3CCCC3c3ccccc3)nn3cccc23)c1` (centres unmarked) [Compound 10a, N-(1-methyl-1H-imidazol-4-yl)-2-(2-phenylpyrrolidin-1-yl)pyrrolo[2,1-f][1,2,4]triazin-4-amine], the IC50 is under 100 nM.

In the case of `COc1cc(-n2cnc(Nc3nc(N4CCC[C@H]4C(N)=O)nc4scnc34)c2)cc(OC)c1OC` [Compound 158b, (S)-1-(7-((1-(3,4,5-trimethoxyphenyl)-1H-imidazol-4-yl)amino)thiazolo[5,4-d]pyrimidin-5-yl)pyrrolidine-2-carboxamide], the IC50 was under 100 nM.

In the case of `COc1cc(-n2cnc(Nc3nc(N4CCC[C@@H]4CO)nc4scnc34)c2)cc(OC)c1OC` [Compound 317a, (R)-(1-(7-((1-(3,4,5-trimethoxyphenyl)-1H-imidazol-4-yl)amino)thiazolo[5,4-d]pyrimidin-5-yl)pyrrolidin-2-yl)methanol], the IC50 was under 100 nM.

Turning to `OC[C@@H]1CCCN1c1nc(Nc2cn(-c3ccnc4c(F)cccc34)cn2)c2cccn2n1` [Compound 441e, (S)-(1-(4-((1-(8-fluoroquinolin-4-yl)-1H-imidazol-4-yl)amino)pyrrolo[2,1-f][1,2,4]triazin-2-yl)pyrrolidin-2-yl)methanol], the IC50 is under 100 nM.

As to `Cn1cnc(Nc2nc(N3CCCC3c3ccccn3)nc3ccoc23)c1` (centres unmarked) [Compound 5a, N-(1-methyl-1H-imidazol-4-yl)-2-(2-(pyridin-2-yl)pyrrolidin-1-yl)furo[3,2-d]pyrimidin-4-amine], the half-inhibitory concentration (IC50) was under 100 nM.

As to `COc1cc(-n2cnc(Nc3nc(N4CCC[C@H]4CO)nn4c(CN5CCOCC5)ccc34)c2)cc(OC)c1OC` [Compound 111b, (S)-(1-(7-(morpholinomethyl)-4-((1-(3,4,5-trimethoxyphenyl)-1H-imidazol-4-yl)amino)pyrrolo[2,1-f][1,2,4]triazin-2-yl)pyrrolidin-2-yl)methanol], the IC50 was under 100 nM.

For `COc1cc(-n2cnc(Nc3nc(N4CCC[C@H]4C(N)=O)nn4cccc34)c2)cc(OC)c1OC` [Compound 91a, (S)-1-(4-(1-(3,4,5-trimethoxyphenyl)-1H-imidazol-4-ylamino)pyrrolo[1,2-f][1,2,4]triazin-2-yl)pyrrolidine-2-carboxamide], the IC50 is under 100 nM.

Consider `COc1cc(-n2cnc(Nc3nc(N4CCC[C@H]4CO)nn4c(CNC(C)C)ccc34)c2)cc(OC)c1OC` [Compound 129b, (S)-(1-(7-((isopropylamino)methyl)-4-((1-(3,4,5-trimethoxyphenyl)-1H-imidazol-4-yl)amino)pyrrolo[2,1-f][1,2,4]triazin-2-yl)pyrrolidin-2-yl)methanol], for which the IC50 is under 100 nM.

As for `COc1cc(-n2cnc(Nc3nc(N4[C@H](CO)C[C@H]5C[C@H]54)nc4c3CCC4)c2)cc(OC)c1OC` [Compound 396a, ((1R,3S,5R)-2-(4-((1-(3,4,5-trimethoxyphenyl)-1H-imidazol-4-yl)amino)-6,7-dihydro-5H-cyclopenta[d]pyrimidin-2-yl)-2-azabicyclo[3.1.0]hexan-3-yl)methanol], the IC50 is under 100 nM.

With `COc1cc(-n2cnc(Nc3nc4c(c(N5CCC[C@H]5CO)n3)CN(Cc3ccccc3)CC4)c2)cc(OC)c1OC` [Compound 177b, (S)-(1-(6-benzyl-2-((1-(3,4,5-trimethoxyphenyl)-1H-imidazol-4-yl)amino)-5,6,7,8-tetrahydropyrido[4,3-d]pyrimidin-4-yl)pyrrolidin-2-yl)methanol], the IC50 was under 100 nM.

`COc1cc(-n2cnc(Nc3nc(N4CCC[C@H]4CO)nc4ccn(S(=O)(=O)c5ccc(C)cc5)c34)c2)cc(OC)c1OC` [Compound 160c, (S)-(1-(5-tosyl-4-((1-(3,4,5-trimethoxyphenyl)-1H-imidazol-4-yl)amino)-5H-pyrrolo[3,2-d]pyrimidin-2-yl)pyrrolidin-2-yl)methanol]: the IC50 was over 1000 nM.

Consider `COC(=O)c1cnc(Nc2nc(N3CCC[C@H]3CO)nn3cccc23)s1` [Compound 455d, (S)-methyl 2-((2-(2-(hydroxymethyl)pyrrolidin-1-yl)pyrrolo[2,1-f][1,2,4]triazin-4-yl)amino)thiazole-5-carboxylate], for which the IC50 was over 1000 nM.
